# Measured values as given in patent US7632930B2, “Oligosaccharide derivative” (Sankyo Company Limited, priority 2003, dated 2009).
# Legend:
# [1] = biological target: T1, human pancreatic α-amylase (HPA) (Homo sapiens, UniProt P04746); assay: α-Amylase inhibitory action (blue starch, Neo-Amylase Test); type: biochemical; conditions: final concentration required to inhibit the activity of the HPA solution by 50%; 37° C.
# T1 construct: purchased International Reagents Caribzyme AMY
# T1 sequence (P04746 16-511): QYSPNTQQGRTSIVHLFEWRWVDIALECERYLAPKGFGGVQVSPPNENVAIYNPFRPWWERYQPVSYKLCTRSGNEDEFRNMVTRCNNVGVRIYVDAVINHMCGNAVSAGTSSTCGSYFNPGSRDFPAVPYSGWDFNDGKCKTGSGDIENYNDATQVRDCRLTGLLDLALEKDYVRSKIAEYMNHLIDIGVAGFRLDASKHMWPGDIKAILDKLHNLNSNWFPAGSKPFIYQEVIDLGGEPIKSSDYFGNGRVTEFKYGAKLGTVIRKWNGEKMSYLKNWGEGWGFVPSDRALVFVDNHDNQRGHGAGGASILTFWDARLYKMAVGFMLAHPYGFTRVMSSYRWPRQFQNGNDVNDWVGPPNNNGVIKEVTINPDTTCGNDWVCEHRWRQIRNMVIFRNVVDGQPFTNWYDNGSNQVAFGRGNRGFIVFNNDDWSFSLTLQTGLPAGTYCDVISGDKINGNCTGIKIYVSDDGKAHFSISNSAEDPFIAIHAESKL
# normal mice (ddY mice) = assay: Postprandial hyperglycemia inhibitory action (cornstarch loading); type: in vivo; conditions: ddY mice fasted 20 hours; oral 0.3 mg (test compound)/2 g (cornstarch)/kg; AUC of increase in blood glucose levels, 0.5-3 hours after dosing, vs control group
# Description: Commercially available normal mice (ddY mice, males, age 8 weeks at the time of testing, supplied by Japan SLC).
# (§1) (2) Experimental Methods and Results
# For the dose group, a test compound and commercially available cornstarch were mixed well with 0.5% carboxymethyl cellulose to prepare a suspension that was orally administered at 0.3 mg (test compound)/2 g (cornstarch)/kg (body weight) to five mice that had been fasted in advance for 20 hours. The control group was administered with a similar suspension in the same manner with the exception of not containing the test compound.
# Blood glucose levels were measured using a blood glucose analyzer (Glucoloader GXT, A & T). Inhibition rate(%)=[1−(dose group AUC/control group blood glucose increase AUC)]×100
# [2] = test system: genetically obese diabetic mice (C57BL/KsJ-db/db mice); assay: Blood glucose lowering action in genetically obese diabetic mice; type: in vivo; conditions: 0.005% (w/w) in diet, freely ingested for 1 week, vs control group
# Excerpt: Commercially available, genetically obese diabetic mice (C57BL/KsJ-db/db mice, males, age 16 weeks at the time of testing, supplied by Clea Japan).
# as §1
# A test compound was mixed into a refined laboratory animal diet (carbohydrate content: 65.95% (w/w), Oriental Yeast) to a test compound concentration of 0.005% (w/w) and allowed to be freely ingested by diabetic mice for 1 week in groups of 5 mice per group. A control group was allowed similar unrestricted access to the same feed with the exception of not containing the test compound.
# Blood glucose levels were measured before the start of dosing and one week after the start of dosing. Blood samples were collected from a tail vein and blood glucose levels were measured using a blood glucose analyzer (Glucoloader GXT, A & T) to calculate the blood glucose lowering rate (%) according to the following formula. Blood glucose lowering rate(%)=[1−(compound dose group blood glucose level/control group blood glucose level)]×100
SMILES,IC50 [1] [µM],Inhibition Rate (normal mice (ddY mice)) [%],Blood Glucose Lowering Rate [2] [%]
"C[C@H]1O[C@@H](O[C@H]2[C@H](O)[C@@H](O)[C@@H](O[C@H]3[C@H](O)CN[C@@H]3CO)O[C@@H]2CO)[C@H](O)[C@@H](O)[C@@H]1O [Example 2, (2R,3R,4R)-4-Hydroxy-2-(hydroxymethyl)pyrrolidin-3-yl 4-O-(6-deoxy-β-D-glucopyranosyl)-α-D-glucopyranoside]",0.453,64,47
"C[C@H]1O[C@@H](O[C@H]2[C@H](O)[C@@H](O)[C@@H](O[C@H]3[C@H](O)[C@@H](CO)N[C@@H]3CO)O[C@@H]2CO)[C@H](O)[C@@H](O)[C@@H]1O [Example 7, (2R,3R,4R,5R)-2,5-Dihydroxymethyl-4-hydroxypyrrolidin-3-yl 4-O-(6-deoxy-β-D-glucopyranosyl)-α-D-glucopyranoside]",8.48,–,–
"C[C@H]1O[C@H](O[C@H]2[C@H](O)[C@@H](O)[C@H](O[C@H]3[C@H](O)CN[C@@H]3CO)O[C@@H]2CO)[C@H](O)[C@@H](O)[C@@H]1O [Example 13, (2R,3R,4R)-4-Hydroxy-2-hydroxymethyl-pyrrolidin-3-yl 4-O-(6-deoxy-α-D-glucopyranosyl)-β-D-glucopyranoside]",9.06,–,–

# Second part, led by results:
IC50 [1] [µM],SMILES,Inhibition Rate (normal mice (ddY mice)) [%],Blood Glucose Lowering Rate [2] [%]
1.59,"C[C@H]1O[C@H](O[C@H]2[C@H](O)[C@@H](O)[C@@H](O[C@H]3[C@H](O)CN[C@@H]3CO)O[C@@H]2CO)[C@H](O)[C@@H](O)[C@@H]1O [Example 1, (2R,3R,4R)-4-Hydroxy-2-(hydroxymethyl)pyrrolidin-3-yl 4-O-(6-deoxy-α-D-glucopyranosyl)-α-D-glucopyranoside]",–,–
0.848,"COC[C@H]1O[C@@H](O[C@H]2[C@H](O)[C@@H](O)[C@@H](O[C@H]3[C@H](O)CN[C@@H]3CO)O[C@@H]2CO)[C@H](O)[C@@H](O)[C@@H]1O [Example 8, (2R,3R,4R)-4-Hydroxy-2-hydroxymethyl-pyrrolidin-3-yl 4-O-(6-methoxy-6-deoxy-β-D-glucopyranosyl)-D-glucopyranoside]",–,–
2.12,"C[C@H]1O[C@H](O[C@H]2[C@H](O)[C@@H](O)[C@@H](O[C@H]3[C@H](O)[C@@H](O)[C@H](N)[C@@H]3CO)O[C@@H]2CO)[C@H](O)[C@@H](O)[C@@H]1O [Example 14, (1R,2S,3R,4R,5R)-1-Amino-2,3-dihydroxy-5-hydroxymethyl-cyclopent-4-yl 4-O-(6-deoxy-α-D-glucopyranosyl)-α-D-glucopyranoside]",–,–
1.27,"C[C@H]1O[C@@H](O[C@H]2[C@H](O)[C@@H](O)[C@@H](O[C@H]3[C@H](O)[C@@H](O)[C@H](N)[C@@H]3CO)O[C@@H]2CO)[C@H](O)[C@@H](O)[C@@H]1O [Example 15, (1R,2S,3R,4R,5R)-1-Amino-2,3-dihydroxy-5-hydroxymethyl-cyclopent-4-yl 4-O-(6-deoxy-β-D-glucopyranosyl)-α-D-glucopyranoside]",–,–
